In patent US20250170151A1 (REMEDY PHARMACEUTICALS, INC., priority 2022, published 2025):
In brackets after ≈: the same amount, converted by molar mass. Read-outs that look alike come from different tables or passages of the source.

Columns and labels:
[1] = Stability of glyburide after reconstitution with Tris buffer, HPLC (Example 6); assay type: physicochemical; settings: for Glyburide content (mg/mL) at T0 h / Glyburide content (mg/mL) at T2 h / Glyburide content (mg/mL) at T24 h: +50% excess NaOH, 0.22 um filtered, HPLC; for Recon vial pH: lyophilized formulation +50% excess NaOH
Description: The contents of the vial were dissolved by gentle shaking and pH after reconstitution was measured. About 1 mL of sample was withdrawn at 0, 1, 2 and 24 hours post reconstitution and filtered through 0.22 um membrane filters and analyzed by HPLC.

[2] = cited from earlier work
[3] = Mock IV infusion: sorption of glyburide to administration sets; assay type: physicochemical; settings: for initial drop in the glyburide concentration: PVC administration sets
Description: Thus, there was significant unpredictability in how much of the drug product would be administered to a given patient at any given time depending on various factors. […] At lower NaOH:GLY ratios, a longer period of time is required for the drug concentration to recover.

[4] = Drug reconstitution and dilution experiments (Example 2); settings: vial reconstitution pH above 10.2; 6 mg vial, 20 ml WFI, 500 ml saline bag
Description: A maximum final dosing pH of 9.2 (after infusion, there is a slight drop in pH to ˜9, which is the maximum pH of a solution that can be safely infused to a patient) was used as an upper limit constraint on the reconstitution solution and dilution solution pHs. Drug reconstitution and dilution experiments were carried out.

[5] = Glyburide solubility in intravenous dosing solutions; assay type: physicochemical
[6] = aqueous buffer, cited from earlier work
[7] = physchem
Description: An additional critical requirement was that, after reconstitution, the reconstituted formulation must remain sufficiently stable and soluble.
The vial pH after reconstitution (20 ml) can be used to ensure that the appropriate compounding pH was achieved during manufacture. The target reconstitution pH is 9.8 with a range of 9.2-10.2. In some aspects, the concentration after reconstitution is 0.3 mg/ml (6 mg/20 ml).

[8] = Studies with phosphate and glycine buffering agents (Example 3); assay type: physicochemical; settings: buffering agents phosphate (pKa 7.21) and glycine (pKa 9.8)
Description: For example, and without limiting the foregoing disclosure, the buffering agent may be Tris, lysine, arginine, an ethylenediamine, an imidazole, a 4-(2-Hydroxyethyl)morpholine, a triethanolamine, a glucamine, a deanol (dimethylaminoethanol), phosphate, phosphate buffered saline (PBS), or a combination thereof.

[9] = recon diluent 10 mM tris pH 7.99
[10] = recon diluent 10 mM tris pH 8.25

COc1ccc(Cl)cc1C(=O)NCCc1ccc(S(=O)(=O)NC(=O)NC2CCCCC2)cc1 [glyburide, 5-chloro-N-(4-[N-(cyclohexylcarbamoyl)sulfamoyl]phenethyl)-2-methoxybenzamide]
Glyburide content (mg/mL) at T0 h [1, 9]: 0.29 mg/mL
Glyburide content (mg/mL) at T2 h [1, 9]: 0.29 mg/mL
Glyburide content (mg/mL) at T24 h [1, 9]: 0.29 mg/mL
Glyburide content (mg/mL) at T0 h [1, 10]: 0.29 mg/mL
Glyburide content (mg/mL) at T2 h [1, 10]: 0.29 mg/mL
Glyburide content (mg/mL) at T24 h [1, 10]: 0.29 mg/mL
Recon vial pH ([1]; recon diluent 20 mL 10 mM tris pH 7.99): 8.65
Recon vial pH ([1]; recon diluent 20 mL 10 mM tris pH 8.25): 8.78
precipitation of glyburide after reconstitution ([1]; recon pH of 8.65 and 8.78, through 24 hours): No precipitation
Solubility ([2]; all measured pH values from pH 4 to pH 9, Britton-Robinson buffer): below 1 mg/mL
Solubility ([2]; pH 4, 27° C., Britton-Robinson buffer): 4 µg/mL (≈ 8.1 µM)
Solubility ([2]; pH 6, 27° C., Britton-Robinson buffer): 5 µg/mL (≈ 10.1 µM)
Solubility ([2]; pH 7, 27° C., Britton-Robinson buffer): 11 µg/mL (≈ 22.3 µM)
Solubility ([2]; pH 8, 27° C., Britton-Robinson buffer): 80 µg/mL (≈ 162 µM)
Solubility ([2]; pH 9, 27° C., Britton-Robinson buffer): 600 µg/mL (≈ 1210 µM)
pH in the final dosing solution ([3]; drug product with NaOH:GLY molar ratio of 13.8 reconstituted into saline with a pH of 7): 9.9
drug sorption to administration components made of PVC or PUR ([3]; formulation of the present disclosure with the specific buffering agents): eliminated
dip in glyburide concentration ([3]; formulations of the present disclosure, diluted (final dosing) pH less than 7.8, PVC administration sets (FIG. 3)): at least 10%
initial drop in the glyburide concentration ([3]; prior art formulation, NaOH:GLY ratio 3:1, 1 L saline bag): about 40%
initial drop in the glyburide concentration ([3]; prior art formulations with varying NaOH:GLY molar ratios, 1 L saline bag): at least 10%
pH of reconstituted formulation ([3]; prior art glyburide formulations with sufficiently high base to glyburide ratios): ~10
sorption in mock infusion test (FIG. 1) ([3]; prior art glyburide formulations, various administration materials): significant sorption immediately at the start of infusion
binding to filter components ([3]; prior art intravenous glyburide formulations, all filter components (data not shown)): readily and extensively binds to all filter components
final IV bag pH [4]: greater than 9.2
Solubility ([5]; formulations of the present disclosure): > 15 µg/mL
Solubility ([5]; prior art intravenous glyburide dosing solutions): < 5.7 µg/mL
Solubility ([6]; pH 2, 37° C.): 0.07 µg/mL (≈ 0.142 µM)
Solubility ([6]; pH 3, 37° C.): 0.06 µg/mL (≈ 0.121 µM)
Solubility ([6]; pH 5, 37° C.): 0.1 µg/mL (≈ 0.202 µM)
Solubility ([6]; pH 6, 37° C.): 0.62 µg/mL (≈ 1.26 µM)
Solubility ([6]; pH 7, 37° C.): 5.62 µg/mL (≈ 11.4 µM)
Solubility ([6]; pH 8, 37° C.): 51.2 µg/mL (≈ 104 µM)
Solubility ([6]; pH 9, 37° C.): 98.6 µg/mL (≈ 200 µM)
Solubility ([6]; pH 11.8, 37° C.): 531.6 µg/mL (≈ 1080 µM)
Solubility ([7]; pH 9.25, aqueous buffer): 480 µg/mL (≈ 972 µM)
Solubility ([7]; pH 9.37, aqueous buffer): 720 µg/mL (≈ 1460 µM)
prevention of sorption to medical materials by buffering agent [8]: did not prevent sorption to medical materials
stabilization of glyburide by buffering agent [8]: did not effectively stabilize glyburide
